Converted amounts (≈) assume the structure as drawn.
What was measured:
Staphylococcus aureus [1] = assay: Antibacterial activity against Staphylococcus aureus ATCC25923 incubated for 16 to 20 hrs by broth microdilution method; format: functional; details: time 16-20 hrs
Escherichia coli [2] = assay: Antibacterial activity against Escherichia coli ATCC25922 incubated for 16 to 20 hrs by broth microdilution method; format: functional; details: time 16-20 hrs
Enterococcus faecalis [3] = assay: Antibacterial activity against Enterococcus faecalis ATCC29212 incubated for 16 to 20 hrs by broth microdilution method; format: functional; details: time 16-20 hrs
[4] = test system: Stenotrophomonas maltophilia; assay: Antibacterial activity against Stenotrophomonas maltophilia ATCC17808 incubated for 16 to 20 hrs by broth microdilution method; format: functional; details: time 16-20 hrs
Staphylococcus aureus [5] = assay: Antibacterial activity against drug-resistant Staphylococcus aureus clinical isolate M20 incubated for 16 to 20 hrs by broth microdilution method; format: functional; details: time 16-20 hrs
Escherichia coli [6] = assay: Antibacterial activity against drug-resistant Escherichia coli clinical isolate 1322 incubated for 16 to 20 hrs by broth microdilution method; format: functional; details: time 16-20 hrs
Escherichia coli [7] = assay: Antibacterial activity against drug-resistant Escherichia coli clinical isolate 1333 incubated for 16 to 20 hrs by broth microdilution method; format: functional; details: time 16-20 hrs
Staphylococcus aureus [8] = assay: Bactericidal activity against Staphylococcus aureus ATCC25923 incubated for 20 to 24 hrs; format: functional; details: time 20-24 hrs
Staphylococcus aureus [9] = assay: Antibacterial activity against Staphylococcus aureus ATCC25923 incubated for 20 to 24 hrs; format: functional; details: time 20-24 hrs
Enterococcus faecalis [10] = assay: Bactericidal activity against Enterococcus faecalis ATCC29212 incubated for 20 to 24 hrs; format: functional; details: time 20-24 hrs
Enterococcus faecalis [11] = assay: Antibacterial activity against Enterococcus faecalis ATCC29212 incubated for 20 to 24 hrs; format: functional; details: time 20-24 hrs
Enterococcus faecalis [12] = assay: Ratio of MBC to MIC for Enterococcus faecalis ATCC29212 incubated for 20 to 24 hrs; format: functional; details: time 20-24 hrs
Escherichia coli [13] = assay: Bactericidal activity against Escherichia coli ATCC25922 incubated for 20 to 24 hrs; format: functional; details: time 20-24 hrs
Escherichia coli [14] = assay: Antibacterial activity against Escherichia coli ATCC25922 incubated for 20 to 24 hrs; format: functional; details: time 20-24 hrs
Escherichia coli [15] = assay: Ratio of MBC to MIC for Escherichia coli ATCC25922 incubated for 20 to 24 hrs; format: functional; details: time 20-24 hrs
[16] = test system: Stenotrophomonas maltophilia; assay: Bactericidal activity against Stenotrophomonas maltophilia ATCC17808 incubated for 20 to 24 hrs; format: functional; details: time 20-24 hrs
[17] = test system: Stenotrophomonas maltophilia; assay: Antibacterial activity against Stenotrophomonas maltophilia ATCC17808 incubated for 20 to 24 hrs; format: functional; details: time 20-24 hrs
[18] = test system: Stenotrophomonas maltophilia; assay: Ratio of MBC to MIC for Stenotrophomonas maltophilia ATCC17808 incubated for 20 to 24 hrs; format: functional; details: time 20-24 hrs
Staphylococcus aureus [19] = assay: Ratio of MBC to MIC for Staphylococcus aureus ATCC25923 incubated for 20 to 24 hrs; format: functional; details: time 20-24 hrs
Escherichia coli [20] = assay: Antibacterial activity against Escherichia coli ATCC25922 under 10^4 CFU/ml of bacterial inoculum culture by absorbance based assay; format: functional
Escherichia coli [21] = assay: Antibacterial activity against Escherichia coli ATCC25922 under 10^5 CFU/ml of bacterial inoculum culture by absorbance based assay; format: functional
Escherichia coli [22] = assay: Antibacterial activity against Escherichia coli ATCC25922 under 10^6 CFU/ml of bacterial inoculum culture by absorbance based assay; format: functional
Escherichia coli [23] = assay: Antibacterial activity against Escherichia coli ATCC25922 under 10^7 CFU/ml of bacterial inoculum culture by absorbance based assay; format: functional
Staphylococcus aureus [24] = assay: Antibacterial activity against Staphylococcus aureus ATCC25923 under 10^4 CFU/ml of bacterial inoculum culture by absorbance based assay; format: functional
Staphylococcus aureus [25] = assay: Antibacterial activity against Staphylococcus aureus ATCC25923 under 10^5 CFU/ml of bacterial inoculum culture by absorbance based assay; format: functional
Staphylococcus aureus [26] = assay: Antibacterial activity against Staphylococcus aureus ATCC25923 under 10^6 CFU/ml of bacterial inoculum culture by absorbance based assay; format: functional
Staphylococcus aureus [27] = assay: Antibacterial activity against Staphylococcus aureus ATCC25923 under 10^7 CFU/ml of bacterial inoculum culture by absorbance based assay; format: functional
[28] = Cytotoxicity against mouse HT-22 cells incubated for 72 hrs by MTT assay; format: toxicity, cell-based
[29] = Selectivity index, ratio of IC50 for mouse HT-22 cells to MIC for methicillin-resistant Staphylococcus aureus; format: toxicity, cell-based
Staphylococcus aureus [30] = assay: Induction of resistance development in Staphylococcus aureus ATCC25923 treated daily with continuous passaging measured after 13 passages by absorbance based assay; format: functional; details: ATCC25923, 312 h, time 13 day
Staphylococcus aureus [31] = assay: Induction of resistance development in Staphylococcus aureus ATCC25923 treated daily with continuous passaging measured after 16 passages by absorbance based assay; format: functional; details: ATCC25923, 384 h, time 16 day

Row | Compound | MIC (Staphylococcus aureus [1]) | MIC (Escherichia coli [2]) | MIC (Enterococcus faecalis [3]) | MIC [4] | MIC (Staphylococcus aureus [5]) | MIC (Escherichia coli [6]) | MIC (Escherichia coli [7]) | MBC (Staphylococcus aureus [8]) | MIC (Staphylococcus aureus [9]) | MBC (Enterococcus faecalis [10]) | MIC (Enterococcus faecalis [11]) | Ratio (Enterococcus faecalis [12]) | MIC (Escherichia coli [14]) | MBC [16] | MIC [17] | Ratio [18] | MIC (Escherichia coli [20]) | MIC (Escherichia coli [21]) | MIC (Escherichia coli [22]) | MIC (Escherichia coli [23]) | further results
1 | CC[C@H]1OC(=O)C[C@@H](O)[C@H](C)[C@@H](O[C@@H]2O[C@H](C)[C@@H](O)[C@H](N(C)C)[C@H]2O)[C@@H](CCN(C)Cc2cn(-c3cnc4ccccc4c3)nn2)C[C@@H](C)C(=O)/C=C/C(C)=C/[C@@H]1CN(C)Cc1ccccc1 | 0.5 µg/mL (≈ 0.541 µM) | 1 µg/mL (≈ 1.08 µM) | 1 µg/mL (≈ 1.08 µM) | 1 µg/mL (≈ 1.08 µM) | 0.5 µg/mL (≈ 0.541 µM) | 1 µg/mL (≈ 1.08 µM) | 2 µg/mL (≈ 2.16 µM) | > 32 µg/mL | 16 µg/mL (≈ 17.3 µM) | 8 µg/mL (≈ 8.66 µM) | 4 µg/mL (≈ 4.33 µM) | 2 | 1 µg/mL (≈ 1.08 µM) | 16 µg/mL (≈ 17.3 µM) | 4 µg/mL (≈ 4.33 µM) | 4 |  |  |  |  | MBC (Escherichia coli [13]): 4 µg/mL (≈ 4.33 µM); Ratio (Escherichia coli [15]): 4
2 | CC[C@H]1OC(=O)C[C@@H](O)[C@H](C)[C@@H](O[C@@H]2O[C@H](C)[C@@H](O)[C@H](N(C)C)[C@H]2O)[C@@H](CCN2CCCCC2)C[C@@H](C)C(=O)/C=C/C(C)=C/[C@@H]1CN1CCCCC1 [TILDIPIROSIN] | 16 µg/mL (≈ 21.8 µM) | 1 µg/mL (≈ 1.36 µM) | 16 µg/mL (≈ 21.8 µM) | 1 µg/mL (≈ 1.36 µM) | 32 µg/mL (≈ 43.6 µM) | 4 µg/mL (≈ 5.45 µM) | 16 µg/mL (≈ 21.8 µM) | 4 µg/mL (≈ 5.45 µM) | 0.5 µg/mL (≈ 0.681 µM) | 16 µg/mL (≈ 21.8 µM) | 8 µg/mL (≈ 10.9 µM) | 2 | 32 µg/mL (≈ 43.6 µM) | 16 µg/mL (≈ 21.8 µM) | 8 µg/mL (≈ 10.9 µM) | 2 | > 32 µg/mL | > 32 µg/mL | > 32 µg/mL | > 32 µg/mL | Ratio (Staphylococcus aureus [19]): 8; MIC (Staphylococcus aureus [24]): 0.5 µg/mL (≈ 0.681 µM); MIC (Staphylococcus aureus [25]): 0.5 µg/mL (≈ 0.681 µM); MIC (Staphylococcus aureus [26]): 1 µg/mL (≈ 1.36 µM); MIC (Staphylococcus aureus [27]): 1 µg/mL (≈ 1.36 µM); IC50 at 72 h [28]: 114 µg/mL (≈ 155 µM); selectivity ratio [29]: 3.56
3 | CC[C@H]1OC(=O)C[C@@H](O)[C@H](C)[C@@H](O[C@@H]2O[C@H](C)[C@@H](O[C@H]3C[C@@](C)(O)[C@@H](O)[C@H](C)O3)[C@H](N(C)C)[C@H]2O)[C@@H](CC=O)C[C@@H](C)C(=O)/C=C/C(C)=C/[C@@H]1CO[C@@H]1O[C@H](C)[C@@H](O)[C@@H](OC)[C@H]1OC [TYLOSIN] | 0.5 µg/mL (≈ 0.546 µM) | > 32 µg/mL | 0.5 µg/mL (≈ 0.546 µM) | > 32 µg/mL | 0.5 µg/mL (≈ 0.546 µM) | > 32 µg/mL | > 32 µg/mL |  |  |  |  |  |  |  |  |  | 1 µg/mL (≈ 1.09 µM) | 1 µg/mL (≈ 1.09 µM) | 2 µg/mL (≈ 2.18 µM) | 2 µg/mL (≈ 2.18 µM) | MIC (Staphylococcus aureus [24]): 1 µg/mL (≈ 1.09 µM); MIC (Staphylococcus aureus [25]): 2 µg/mL (≈ 2.18 µM); MIC (Staphylococcus aureus [26]): 4 µg/mL (≈ 4.37 µM); MIC (Staphylococcus aureus [27]): 4 µg/mL (≈ 4.37 µM)
4 | CC(=O)NC[C@H]1CN(c2ccc(N3CCOCC3)c(F)c2)C(=O)O1 [LINEZOLID] |  | > 32 µg/mL |  | > 32 µg/mL |  |  |  |  |  |  |  |  |  |  |  |  | < 0.063 µg/mL | < 0.063 µg/mL | < 0.063 µg/mL | < 0.063 µg/mL | MIC (Staphylococcus aureus [30]): 8 µg/mL (≈ 23.7 µM); MIC (Staphylococcus aureus [31]): 16 µg/mL (≈ 47.4 µM)

Source: ChEMBL document CHEMBL6074711, “Design, Synthesis, and Activity Evaluation of C-23-Modified 5-O-Mycaminosyltylonolide Derivatives” (ACS Med Chem Lett, 2024)
